For ten molecules, Kd results are on record in ChEMBL document CHEMBL3991601, “The target landscape of clinical kinase drugs” (Science, 2017).

SMILES strings stand for the structures. Activity calls are given as the source filed them. Rule as the data show it, for most assays here: actives have a measured Kd and inactives only a lower limit.

In experiment [1] the target is T1, Serine/threonine-protein kinase Nek2 (Homo sapiens, UniProt P51955).
T1 sequence (P51955 whole entry): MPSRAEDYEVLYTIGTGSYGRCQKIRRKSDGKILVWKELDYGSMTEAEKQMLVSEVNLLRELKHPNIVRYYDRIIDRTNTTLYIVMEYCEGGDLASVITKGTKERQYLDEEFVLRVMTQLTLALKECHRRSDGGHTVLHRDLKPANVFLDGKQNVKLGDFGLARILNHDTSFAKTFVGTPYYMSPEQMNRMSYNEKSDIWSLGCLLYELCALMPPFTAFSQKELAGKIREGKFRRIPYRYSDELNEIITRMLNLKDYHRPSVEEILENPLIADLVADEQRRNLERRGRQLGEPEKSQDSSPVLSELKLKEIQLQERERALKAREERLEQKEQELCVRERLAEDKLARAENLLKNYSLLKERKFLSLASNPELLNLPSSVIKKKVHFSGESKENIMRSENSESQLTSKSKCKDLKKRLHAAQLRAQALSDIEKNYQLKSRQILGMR

The target of experiment [2] is Structural maintenance of chromosomes protein 2 (Homo sapiens, UniProt O95347).
Structural maintenance of chromosomes protein 2, sequence (O95347 whole entry): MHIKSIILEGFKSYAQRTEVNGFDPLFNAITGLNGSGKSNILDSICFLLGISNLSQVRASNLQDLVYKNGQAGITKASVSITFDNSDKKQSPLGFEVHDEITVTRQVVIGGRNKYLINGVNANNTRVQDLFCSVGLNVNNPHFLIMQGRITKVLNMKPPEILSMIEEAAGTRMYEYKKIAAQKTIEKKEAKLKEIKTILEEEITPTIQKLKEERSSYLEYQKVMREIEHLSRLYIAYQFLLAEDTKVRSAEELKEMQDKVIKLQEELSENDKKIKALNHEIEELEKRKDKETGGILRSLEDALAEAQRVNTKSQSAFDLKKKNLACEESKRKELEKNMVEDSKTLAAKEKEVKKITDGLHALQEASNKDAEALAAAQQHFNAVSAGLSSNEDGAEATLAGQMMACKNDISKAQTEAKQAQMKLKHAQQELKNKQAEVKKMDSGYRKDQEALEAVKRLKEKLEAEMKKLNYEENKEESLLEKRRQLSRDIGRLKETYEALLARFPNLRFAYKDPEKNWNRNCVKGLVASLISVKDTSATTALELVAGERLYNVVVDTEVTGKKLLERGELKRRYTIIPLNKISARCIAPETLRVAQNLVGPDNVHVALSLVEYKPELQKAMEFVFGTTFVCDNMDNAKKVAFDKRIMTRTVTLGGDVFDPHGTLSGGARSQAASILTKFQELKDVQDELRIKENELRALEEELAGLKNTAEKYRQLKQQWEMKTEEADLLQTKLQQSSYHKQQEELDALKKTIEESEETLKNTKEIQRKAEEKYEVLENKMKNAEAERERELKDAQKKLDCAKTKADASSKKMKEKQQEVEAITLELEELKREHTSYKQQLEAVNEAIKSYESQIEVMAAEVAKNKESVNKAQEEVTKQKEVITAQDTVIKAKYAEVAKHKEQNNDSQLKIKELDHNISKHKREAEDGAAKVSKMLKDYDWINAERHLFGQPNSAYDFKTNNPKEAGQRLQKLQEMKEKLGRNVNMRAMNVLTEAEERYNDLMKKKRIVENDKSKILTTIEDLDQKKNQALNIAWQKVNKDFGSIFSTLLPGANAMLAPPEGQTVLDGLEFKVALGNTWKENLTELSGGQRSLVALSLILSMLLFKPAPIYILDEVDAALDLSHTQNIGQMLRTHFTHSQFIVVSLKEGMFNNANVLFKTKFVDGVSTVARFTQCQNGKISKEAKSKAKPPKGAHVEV
Experiment [3] concerns the target Tyrosine-protein kinase HCK (Homo sapiens, UniProt P08631).
Experiment [4] addresses Ribosomal protein S6 kinase alpha-5 (Homo sapiens, UniProt O75582).
Experiment [5] deals with Mitogen-activated protein kinase 3 (Homo sapiens, UniProt P27361).
For experiment [6], the target named is Tyrosine-protein kinase BTK (Homo sapiens, UniProt Q06187).
Tyrosine-protein kinase BTK, sequence (Q06187 whole entry): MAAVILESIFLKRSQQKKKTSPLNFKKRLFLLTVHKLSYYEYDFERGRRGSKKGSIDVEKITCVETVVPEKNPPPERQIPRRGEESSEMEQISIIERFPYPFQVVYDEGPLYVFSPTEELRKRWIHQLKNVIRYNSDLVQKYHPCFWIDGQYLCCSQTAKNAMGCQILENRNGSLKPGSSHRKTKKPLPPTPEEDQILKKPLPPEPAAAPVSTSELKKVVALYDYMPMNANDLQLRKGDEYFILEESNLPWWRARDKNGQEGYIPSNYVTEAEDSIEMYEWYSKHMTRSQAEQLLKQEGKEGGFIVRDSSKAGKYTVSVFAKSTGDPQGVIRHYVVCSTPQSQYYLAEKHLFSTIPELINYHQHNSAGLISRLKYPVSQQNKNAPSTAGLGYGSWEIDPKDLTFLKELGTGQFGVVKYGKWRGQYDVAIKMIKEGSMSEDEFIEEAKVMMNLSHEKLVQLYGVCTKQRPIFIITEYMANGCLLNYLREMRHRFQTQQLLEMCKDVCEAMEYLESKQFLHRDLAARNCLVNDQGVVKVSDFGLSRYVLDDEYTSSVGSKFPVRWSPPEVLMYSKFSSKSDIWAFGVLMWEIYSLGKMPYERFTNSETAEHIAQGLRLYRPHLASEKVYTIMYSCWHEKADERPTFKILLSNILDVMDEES
The target in another experiment is T2, Ephrin type-B receptor 4 (Homo sapiens, UniProt P54760).
T2 sequence (P54760 whole entry): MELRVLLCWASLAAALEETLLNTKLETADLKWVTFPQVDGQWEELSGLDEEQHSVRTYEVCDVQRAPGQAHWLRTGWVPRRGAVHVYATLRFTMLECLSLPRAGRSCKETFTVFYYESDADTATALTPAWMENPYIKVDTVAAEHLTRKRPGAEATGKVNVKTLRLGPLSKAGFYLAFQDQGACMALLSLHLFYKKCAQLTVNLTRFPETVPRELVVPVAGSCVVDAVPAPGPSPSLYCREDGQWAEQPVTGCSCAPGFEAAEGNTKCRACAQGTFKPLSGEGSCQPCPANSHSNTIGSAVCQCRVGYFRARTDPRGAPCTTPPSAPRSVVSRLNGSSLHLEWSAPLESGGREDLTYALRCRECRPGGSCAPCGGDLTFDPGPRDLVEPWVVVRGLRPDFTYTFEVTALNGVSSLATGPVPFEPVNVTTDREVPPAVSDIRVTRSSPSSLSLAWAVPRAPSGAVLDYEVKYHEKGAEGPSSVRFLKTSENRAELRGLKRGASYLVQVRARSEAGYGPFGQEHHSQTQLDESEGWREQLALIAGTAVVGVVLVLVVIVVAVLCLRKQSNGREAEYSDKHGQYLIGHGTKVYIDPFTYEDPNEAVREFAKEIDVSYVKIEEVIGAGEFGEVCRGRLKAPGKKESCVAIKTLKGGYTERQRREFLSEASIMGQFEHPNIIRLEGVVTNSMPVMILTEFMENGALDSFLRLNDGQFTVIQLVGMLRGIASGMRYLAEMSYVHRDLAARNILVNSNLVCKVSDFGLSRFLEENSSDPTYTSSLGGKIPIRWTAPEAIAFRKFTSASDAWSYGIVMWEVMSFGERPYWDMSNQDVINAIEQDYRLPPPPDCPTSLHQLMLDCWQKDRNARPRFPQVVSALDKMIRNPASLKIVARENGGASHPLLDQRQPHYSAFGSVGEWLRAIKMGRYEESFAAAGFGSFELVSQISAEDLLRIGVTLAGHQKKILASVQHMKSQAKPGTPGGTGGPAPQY

For experiment [7], the target named is NADH dehydrogenase [ubiquinone] 1 alpha subcomplex subunit 13 (Homo sapiens, UniProt Q9P0J0).
NADH dehydrogenase [ubiquinone] 1 alpha subcomplex subunit 13, sequence (Q9P0J0 whole entry, one chain of several): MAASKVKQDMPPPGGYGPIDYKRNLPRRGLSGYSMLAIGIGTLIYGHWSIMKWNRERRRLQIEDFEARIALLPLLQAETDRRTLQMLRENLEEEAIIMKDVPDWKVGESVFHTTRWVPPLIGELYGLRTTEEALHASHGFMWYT
In experiment [8] the target is T3, Ferrochelatase, mitochondrial (Homo sapiens, UniProt P22830).
T3 sequence (P22830 whole entry): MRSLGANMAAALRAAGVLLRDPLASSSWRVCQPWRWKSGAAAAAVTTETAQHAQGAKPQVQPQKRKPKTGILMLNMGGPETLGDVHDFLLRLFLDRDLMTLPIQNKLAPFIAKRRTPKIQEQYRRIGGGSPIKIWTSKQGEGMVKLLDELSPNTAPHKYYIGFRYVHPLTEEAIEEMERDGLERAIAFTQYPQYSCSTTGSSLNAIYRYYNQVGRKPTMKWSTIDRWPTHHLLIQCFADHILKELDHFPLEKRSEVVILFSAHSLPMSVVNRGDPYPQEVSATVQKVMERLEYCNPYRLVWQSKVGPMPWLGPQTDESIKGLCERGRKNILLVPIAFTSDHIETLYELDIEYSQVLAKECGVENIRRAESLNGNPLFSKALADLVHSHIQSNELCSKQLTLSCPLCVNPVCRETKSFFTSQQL

The target in experiment [9] is T4, EKC/KEOPS complex subunit TP53RK (Homo sapiens, UniProt Q96S44).
T4 sequence (Q96S44 whole entry): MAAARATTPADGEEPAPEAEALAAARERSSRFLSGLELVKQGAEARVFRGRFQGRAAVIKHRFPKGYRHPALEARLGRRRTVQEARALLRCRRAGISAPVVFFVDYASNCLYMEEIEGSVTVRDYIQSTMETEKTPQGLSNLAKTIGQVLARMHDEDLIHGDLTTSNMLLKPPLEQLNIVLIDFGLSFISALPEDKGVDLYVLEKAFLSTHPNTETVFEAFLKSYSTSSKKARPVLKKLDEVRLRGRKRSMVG

Experiment [10] concerns the target RAC-gamma serine/threonine-protein kinase (Homo sapiens, UniProt Q9Y243).
Experiment [11] addresses Putative heat shock protein HSP 90-beta 2 (Homo sapiens, UniProt Q58FF8).
The target of experiment [12] is Eukaryotic translation initiation factor 2-alpha kinase 1 (Homo sapiens, UniProt Q9BQI3).
Eukaryotic translation initiation factor 2-alpha kinase 1, sequence (Q9BQI3 whole entry): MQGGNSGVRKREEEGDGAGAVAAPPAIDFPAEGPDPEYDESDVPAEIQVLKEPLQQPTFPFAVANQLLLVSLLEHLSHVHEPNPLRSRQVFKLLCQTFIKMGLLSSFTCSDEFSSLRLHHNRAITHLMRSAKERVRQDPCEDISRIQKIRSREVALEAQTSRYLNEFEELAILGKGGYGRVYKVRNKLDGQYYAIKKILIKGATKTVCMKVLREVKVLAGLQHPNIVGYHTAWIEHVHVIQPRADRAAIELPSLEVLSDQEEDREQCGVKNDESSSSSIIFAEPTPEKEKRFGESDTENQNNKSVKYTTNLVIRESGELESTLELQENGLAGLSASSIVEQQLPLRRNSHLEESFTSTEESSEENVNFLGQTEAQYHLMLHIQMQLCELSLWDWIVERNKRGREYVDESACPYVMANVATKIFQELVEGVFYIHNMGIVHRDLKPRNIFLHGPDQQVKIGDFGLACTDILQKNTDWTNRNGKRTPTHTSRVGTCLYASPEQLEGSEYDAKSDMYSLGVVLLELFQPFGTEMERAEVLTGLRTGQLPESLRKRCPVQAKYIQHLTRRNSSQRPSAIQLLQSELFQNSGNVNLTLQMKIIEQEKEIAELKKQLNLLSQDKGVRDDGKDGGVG
Also: in the data inactive means no Kd found up to 30 µM.

Putative heat shock protein HSP 90-beta 2, sequence (Q58FF8 whole entry): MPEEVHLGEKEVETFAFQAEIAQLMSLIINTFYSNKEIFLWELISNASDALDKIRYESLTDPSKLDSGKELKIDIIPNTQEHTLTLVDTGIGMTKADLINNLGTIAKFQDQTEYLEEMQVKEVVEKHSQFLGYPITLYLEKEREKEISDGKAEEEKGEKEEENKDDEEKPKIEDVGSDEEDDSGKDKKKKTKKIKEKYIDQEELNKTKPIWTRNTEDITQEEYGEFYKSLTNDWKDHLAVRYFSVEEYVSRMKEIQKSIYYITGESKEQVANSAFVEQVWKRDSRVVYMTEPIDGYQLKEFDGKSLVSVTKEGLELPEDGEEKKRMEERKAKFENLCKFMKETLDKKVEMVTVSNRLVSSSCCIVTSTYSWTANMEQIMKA
RAC-gamma serine/threonine-protein kinase, sequence (Q9Y243 whole entry): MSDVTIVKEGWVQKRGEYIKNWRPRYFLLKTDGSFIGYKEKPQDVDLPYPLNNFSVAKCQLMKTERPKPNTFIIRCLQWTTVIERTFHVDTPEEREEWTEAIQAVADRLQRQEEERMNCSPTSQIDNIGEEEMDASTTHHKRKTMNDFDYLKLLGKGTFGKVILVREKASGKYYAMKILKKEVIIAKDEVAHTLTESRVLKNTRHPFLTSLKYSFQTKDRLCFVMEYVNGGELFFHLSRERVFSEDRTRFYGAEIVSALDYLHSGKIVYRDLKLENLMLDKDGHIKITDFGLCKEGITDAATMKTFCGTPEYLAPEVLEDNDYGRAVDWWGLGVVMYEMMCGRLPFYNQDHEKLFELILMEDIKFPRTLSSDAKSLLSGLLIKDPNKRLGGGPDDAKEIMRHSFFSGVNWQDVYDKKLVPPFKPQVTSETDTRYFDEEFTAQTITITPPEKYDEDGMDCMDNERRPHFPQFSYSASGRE
Ribosomal protein S6 kinase alpha-5, sequence (O75582 whole entry): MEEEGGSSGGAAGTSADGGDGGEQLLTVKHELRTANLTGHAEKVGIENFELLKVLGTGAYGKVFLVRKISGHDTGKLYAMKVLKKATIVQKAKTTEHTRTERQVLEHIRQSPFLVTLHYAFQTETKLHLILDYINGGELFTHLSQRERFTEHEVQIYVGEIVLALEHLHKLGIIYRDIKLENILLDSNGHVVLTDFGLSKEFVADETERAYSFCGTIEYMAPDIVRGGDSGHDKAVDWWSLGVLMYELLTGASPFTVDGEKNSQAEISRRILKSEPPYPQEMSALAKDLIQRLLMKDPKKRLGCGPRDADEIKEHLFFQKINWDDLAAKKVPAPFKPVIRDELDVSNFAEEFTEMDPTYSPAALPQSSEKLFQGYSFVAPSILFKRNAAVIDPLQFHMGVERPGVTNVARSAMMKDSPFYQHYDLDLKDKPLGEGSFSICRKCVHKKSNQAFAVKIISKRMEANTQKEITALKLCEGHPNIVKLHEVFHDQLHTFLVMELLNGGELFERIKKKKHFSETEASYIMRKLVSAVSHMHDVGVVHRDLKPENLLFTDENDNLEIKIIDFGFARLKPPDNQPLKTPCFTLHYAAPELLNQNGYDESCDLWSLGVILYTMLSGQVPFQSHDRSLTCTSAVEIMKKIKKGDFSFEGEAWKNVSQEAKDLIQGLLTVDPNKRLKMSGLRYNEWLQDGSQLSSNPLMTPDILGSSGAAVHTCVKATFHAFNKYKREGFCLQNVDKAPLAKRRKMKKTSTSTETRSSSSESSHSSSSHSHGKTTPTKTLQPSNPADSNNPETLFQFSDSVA
Tyrosine-protein kinase HCK, sequence (P08631 whole entry): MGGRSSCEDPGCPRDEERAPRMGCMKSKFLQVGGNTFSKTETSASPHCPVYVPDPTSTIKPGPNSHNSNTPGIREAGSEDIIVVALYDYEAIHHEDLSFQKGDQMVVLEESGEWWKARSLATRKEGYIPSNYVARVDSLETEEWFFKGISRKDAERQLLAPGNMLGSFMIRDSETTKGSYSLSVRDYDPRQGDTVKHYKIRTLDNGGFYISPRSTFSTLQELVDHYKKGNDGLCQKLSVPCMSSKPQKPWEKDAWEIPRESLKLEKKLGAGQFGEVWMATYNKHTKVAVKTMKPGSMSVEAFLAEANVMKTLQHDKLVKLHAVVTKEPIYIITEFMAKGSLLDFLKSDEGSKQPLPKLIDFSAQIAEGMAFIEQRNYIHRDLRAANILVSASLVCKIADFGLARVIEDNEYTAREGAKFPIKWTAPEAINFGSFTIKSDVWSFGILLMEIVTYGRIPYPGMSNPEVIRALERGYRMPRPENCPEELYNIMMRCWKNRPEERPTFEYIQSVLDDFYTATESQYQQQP

For the molecule `CCc1nc(C(N)=O)c(Nc2ccc(N3CCC(N4CCN(C)CC4)CC3)c(OC)c2)nc1NC1CCOCC1` [GILTERITINIB], the dissociation constant Kd was 0.247 µM in experiment [1]; > 30 µM (inactive) in [2]; 1.59 µM (active) in [3]; > 30 µM (inactive) in [4]; > 30 µM (inactive) in experiment [5]; > 30 µM (inactive) in experiment [6]. Also, the Kd on Ephrin type-B receptor 4 is > 30 µM (inactive); in experiment [7] it was > 30 µM (inactive); in [8], > 30 µM (inactive); in [9], 2.72 µM (active); in experiment [10] it was > 30 µM (inactive); in experiment [11], > 30 µM (inactive).

For `CCOc1ccn(-c2ccc(F)cc2)c(=O)c1C(=O)Nc1ccc(Oc2ccnc(N)c2Cl)c(F)c1` [BMS-777607], the Kd in experiment [1], in experiment [2], in [3], in [4], in experiment [5] and in experiment [12] was > 30 µM (inactive) in each case. Also, the Kd (on Ephrin type-B receptor 4; in experiment [8]; in experiment [9]; in [10]; in [11]) was > 30 µM (inactive) each time.

For the molecule `Cc1cc(C(=O)Nc2cc(Oc3ccc4nc(NC(=O)C5CC5)cn4n3)ccc2C)n(C)n1` [TAK-593], the Kd in experiment [1], in [2], in [3], in experiment [4], in experiment [5] and in experiment [6] was > 30 µM (inactive) each time. Further, the Kd (in experiment [12]; on Ephrin type-B receptor 4; in [7]; in experiment [8]; in experiment [9]; in [11]) was > 30 µM (inactive) throughout.

Consider `O=C(O)c1ccc2c(c1)nc(Nc1cccc(Cl)c1)c1ccncc12` [SILMITASERTIB], for which the Kd in experiment [1], in experiment [2], in experiment [3], in [4], in experiment [5] and in experiment [6] was > 30 µM (inactive) throughout. For the same molecule, the Kd is 1.66 µM (active) in experiment [12]; > 30 µM (inactive) on Ephrin type-B receptor 4; > 30 µM (inactive) in [7]; > 30 µM (inactive) in experiment [8]; > 30 µM (inactive) in experiment [10]; > 30 µM (inactive) in experiment [11].

Turning to `N#CCNC(=O)c1ccc(-c2ccnc(Nc3ccc(N4CCOCC4)cc3)n2)cc1` [MOMELOTINIB], the Kd (in experiment [1]; in experiment [2]; in experiment [4]; in [5]; in experiment [6]; at Ephrin type-B receptor 4) was > 30 µM (inactive) in each case. In addition, the Kd in [7], in experiment [8], in [9], in [10] and in experiment [11] was > 30 µM (inactive) each time.

For the molecule `Cn1c(=O)c(F)c(Nc2ccc(I)cc2F)c2c(=O)n(C[C@@H](O)CO)cnc21` [TAK-733], the Kd in experiment [1], in experiment [2], in experiment [3], in experiment [4], in experiment [5] and in [6] was > 30 µM (inactive) each time. Further, the Kd (in experiment [12]; on Ephrin type-B receptor 4; in experiment [8]; in [9]; in experiment [10]; in experiment [11]) was > 30 µM (inactive) in each case.

With `COc1cccc(Nc2ncnn3ccc(CN4CC[C@@H](N)[C@H](O)C4)c23)c1` [BMS-690514], the Kd in experiment [1] is > 30 µM (inactive); in [2], > 30 µM (inactive); in experiment [3], 0.712 µM (active); in experiment [4], > 30 µM (inactive); in [5], > 30 µM (inactive); in experiment [6] it was > 30 µM (inactive). The Kd (in [12]; at Ephrin type-B receptor 4; in experiment [8]; in experiment [9]; in experiment [10]; in experiment [11]) was > 30 µM (inactive) throughout.

As to `S=C(NCc1ccc2c(c1)OCO2)N1CCN(c2ncnc3c2oc2ccccc23)CC1` [AMUVATINIB], the Kd in [1], in experiment [2], in experiment [3], in experiment [4], in experiment [5] and in [6] was > 30 µM (inactive) in each case. Moreover, the Kd (in experiment [12]; on Ephrin type-B receptor 4; in experiment [7]; in [8]; in experiment [9]; in [10]) was > 30 µM (inactive) each time.

Consider `Cc1c(NC(=O)OC[C@@H]2COCCN2)cn2ncnc(Nc3ccc4c(cnn4Cc4cccc(F)c4)c3)c12` [AC-480], for which the Kd in [1], in [2], in experiment [3], in experiment [4], in experiment [5] and in experiment [6] was > 30 µM (inactive) each time. Also, the Kd (in experiment [12]; on Ephrin type-B receptor 4; in experiment [8]; in experiment [9]; in [10]; in experiment [11]) was > 30 µM (inactive) throughout.

On to `NC[C@@](O)(c1ccc(Cl)cc1)c1ccc(-c2cn[nH]c2)cc1` [AT-13148], for which the Kd in experiment [1], in [2], in [3], in [4], in experiment [5] and in experiment [6] was > 30 µM (inactive) in each case. Besides, the Kd (in [12]; on Ephrin type-B receptor 4; in [7]; in experiment [8]; in experiment [9]; in experiment [11]) was > 30 µM (inactive) throughout.
